Measurements: patent US11053204B2, “Pyrimidinyloxy benzene derivatives as herbicides” (FMC Corporation, priority 2015, dated 2021)

Experiments:
Assay type in all cases: in vivo
[1] = system: barnyardgrass (Echinochloa crus-galli); assay: Test B flooded paddy test, plant response rating; conditions: 250 g ai/ha; Flood; scale of 0 to 100 where 0 is no effect and 100 is complete control; 13 to 15 days
How it was run: (§1)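 Greenhouse pots flooded to 3 cm above soil at time of treatment received compound via the water, which stayed at that level.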

[2] = system: ducksalad (Heteranthera limosa); assay: Test B flooded paddy test, plant response rating; conditions: 250 g ai/ha; Flood; scale of 0 to 100 where 0 is no effect and 100 is complete control; 13 to 15 days
How it was run: as §1

rice (Oryza sativa) = assay: Test B flooded paddy test, plant response rating; conditions: 250 g ai/ha; Flood; scale of 0 to 100 where 0 is no effect and 100 is complete control; 13 to 15 days
How it was run: as §1

[3] = system: sedge, umbrella (small-flower umbrella sedge, Cyperus difformis); assay: Test B flooded paddy test, plant response rating; conditions: 250 g ai/ha; Flood; scale of 0 to 100 where 0 is no effect and 100 is complete control; 13 to 15 days
How it was run: as §1

[4] = system: blackgrass (Alopecurus myosuroides); assay: Test C preemergence, plant response rating; conditions: Preemergence
How it was run: (§2)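 Greenhouse plants rated visually against untreated controls 13–15 d after treatment, scale 0 = no effect to 100 = complete control. Postemergence sprays went onto potted plants 2–18 cm tall (1–4 leaves); preemergence sprays onto soil freshly sown in loam–sand or silt loam, chemicals formulated in non-phytotoxic solvent with surfactant.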

corn (Zea mays) = assay: Test C preemergence, plant response rating; conditions: Preemergence
How it was run: as §2

[5] = system: crabgrass, large (large crabgrass, Digitaria sanguinalis); assay: Test C preemergence, plant response rating; conditions: Preemergence
How it was run: as §2

[6] = system: foxtail, giant (giant foxtail, Setaria faberii); assay: Test C preemergence, plant response rating; conditions: Preemergence
How it was run: as §2

[7] = system: lambsquarters (Chenopodium album); assay: Test C preemergence, plant response rating; conditions: Preemergence
How it was run: as §2

[8] = system: morningglory (Ipomoea coccinea); assay: Test C preemergence, plant response rating; conditions: Preemergence
How it was run: as §2

[9] = system: nutsedge, yellow (yellow nutsedge, Cyperus esculentus); assay: Test C preemergence, plant response rating; conditions: Preemergence
How it was run: as §2

[10] = system: oilseed rape (Brassica napus); assay: Test C preemergence, plant response rating; conditions: Preemergence
How it was run: as §2

[11] = system: ragweed (common ragweed, Ambrosia elatior); assay: Test C preemergence, plant response rating; conditions: Preemergence
How it was run: as §2

[12] = system: ryegrass, Italian (Italian ryegrass, Lolium multiflorum); assay: Test C preemergence, plant response rating; conditions: Preemergence
How it was run: as §2

soybean (Glycine max) = assay: Test C preemergence, plant response rating; conditions: Preemergence
How it was run: as §2

[13] = system: velvetleaf (Abutilon theophrasti); assay: Test C preemergence, plant response rating; conditions: Preemergence
How it was run: as §2

[14] = system: waterhemp (common waterhemp, Amaranthus rudis); assay: Test C preemergence, plant response rating; conditions: Preemergence
How it was run: as §2

[15] = system: wheat (winter wheat, Triticum aestivum); assay: Test C preemergence, plant response rating; conditions: Preemergence
How it was run: as §2

[16] = system: chickweed (common chickweed, Stellaria media); assay: Test C postemergence, plant response rating; conditions: for Chickweed plant response rating: scale 0 to 100 (0 no effect, 100 complete control)
How it was run: as §2

[17] = system: foxtail, giant (giant foxtail, Setaria faberii); assay: Test C postemergence, plant response rating; conditions: for Foxtail, Giant plant response rating: scale 0 to 100 (0 no effect, 100 complete control)
How it was run: as §2

[18] = system: morningglory (Ipomoea coccinea); assay: Test C postemergence, plant response rating; conditions: for Morningglory plant response rating: scale 0 to 100 (0 no effect, 100 complete control)
How it was run: as §2

CCCCC(=O)c1c(Br)cccc1Oc1ncc(Cl)cn1 [Compound 79]
75: Plant response rating, Blackgrass ([4]; 62 g ai/ha, scale of 0 to 100) | Plant response rating, Velvetleaf ([13]; 125 g ai/ha, scale of 0 to 100)
25: Foxtail, Giant plant response rating ([17]; 62 g ai/ha)
95: Plant response rating, Oilseed Rape ([10]; 125 g ai/ha, scale of 0 to 100) | Plant response rating, Waterhemp ([14]; 62 g ai/ha, scale 0 to 100) | Plant response rating, Chickweed ([16]; 16 g ai/ha, scale of 0 to 100) | Chickweed plant response rating ([16]; 62 g ai/ha)
90: Plant response rating, Ducksalad [2] | Plant response rating, Blackgrass ([4]; 125 g ai/ha, scale of 0 to 100) | Plant response rating, Chickweed ([16]; 31 g ai/ha, scale 0 to 100)
15: Plant response rating, Wheat ([15]; 125 g ai/ha, scale of 0 to 100)
40: Plant response rating, Foxtail, Giant ([6]; 16 g ai/ha, scale 0 to 100) | Foxtail, Giant plant response rating ([17]; 125 g ai/ha)
30: Plant response rating, Corn (corn (Zea mays); 125 g ai/ha, scale of 0 to 100) | Plant response rating, Ragweed ([11]; 125 g ai/ha, scale of 0 to 100) | Plant response rating, Ryegrass, Italian ([12]; 62 g ai/ha, scale 0 to 100) | Morningglory plant response rating ([18]; 62 g ai/ha) | Morningglory plant response rating ([18]; 125 g ai/ha)
5: Plant response rating, Blackgrass ([4]; 16 g ai/ha, scale 0 to 100) | Plant response rating, Corn (corn (Zea mays); 62 g ai/ha, scale of 0 to 100) | Plant response rating, Soybean (soybean (Glycine max); 125 g ai/ha, scale of 0 to 100) | Plant response rating, Soybean (soybean (Glycine max); 62 g ai/ha, scale 0 to 100) | Plant response rating, Velvetleaf ([13]; 31 g ai/ha, scale 0 to 100) | Plant response rating, Wheat ([15]; 31 g ai/ha, scale 0 to 100) | Plant response rating, Wheat ([15]; 62 g ai/ha, scale 0 to 100)
80: Plant response rating, Foxtail, Giant ([6]; 62 g ai/ha, scale of 0 to 100)
0: Plant response rating, Corn (corn (Zea mays); 16 g ai/ha, scale 0 to 100) | Plant response rating, Corn (corn (Zea mays); 31 g ai/ha, scale 0 to 100) | Plant response rating, Lambsquarters ([7]; 16 g ai/ha, scale 0 to 100) | Plant response rating, Nutsedge, Yellow ([9]; 125 g ai/ha, scale of 0 to 100) | Plant response rating, Nutsedge, Yellow ([9]; 16 g ai/ha, scale 0 to 100) | Plant response rating, Nutsedge, Yellow ([9]; 31 g ai/ha, scale 0 to 100) | Plant response rating, Nutsedge, Yellow ([9]; 62 g ai/ha, scale 0 to 100) | Plant response rating, Oilseed Rape ([10]; 16 g ai/ha, scale 0 to 100) | Plant response rating, Oilseed Rape ([10]; 31 g ai/ha, scale 0 to 100) | Plant response rating, Ragweed ([11]; 16 g ai/ha, scale 0 to 100) | Plant response rating, Ragweed ([11]; 31 g ai/ha, scale 0 to 100) | Plant response rating, Ryegrass, Italian ([12]; 16 g ai/ha, scale 0 to 100) | Plant response rating, Soybean (soybean (Glycine max); 16 g ai/ha, scale 0 to 100) | Plant response rating, Soybean (soybean (Glycine max); 31 g ai/ha, scale 0 to 100) | Plant response rating, Wheat ([15]; 16 g ai/ha, scale 0 to 100)
45: Plant response rating, Rice (rice (Oryza sativa))
65: Plant response rating, Crabgrass, Large ([5]; 16 g ai/ha, scale 0 to 100)
20: Plant response rating, Morningglory ([8]; 16 g ai/ha, scale 0 to 100) | Plant response rating, Ragweed ([11]; 62 g ai/ha, scale 0 to 100) | Plant response rating, Velvetleaf ([13]; 62 g ai/ha, scale 0 to 100) | Plant response rating, Foxtail, Giant ([17]; 31 g ai/ha, scale 0 to 100) | Plant response rating, Morningglory ([18]; 31 g ai/ha, scale 0 to 100)
100: Plant response rating, Sedge, Umbrella [3] | Plant response rating, Crabgrass, Large ([5]; 62 g ai/ha, scale of 0 to 100) | Plant response rating, Waterhemp ([14]; 125 g ai/ha, scale of 0 to 100) | Plant response rating, Waterhemp ([14]; 16 g ai/ha, scale 0 to 100)
98: Plant response rating, Crabgrass, Large ([5]; 125 g ai/ha, scale of 0 to 100) | Plant response rating, Crabgrass, Large ([5]; 31 g ai/ha, scale 0 to 100) | Plant response rating, Foxtail, Giant ([6]; 125 g ai/ha, scale of 0 to 100) | Plant response rating, Waterhemp ([14]; 31 g ai/ha, scale 0 to 100) | Chickweed plant response rating ([16]; 125 g ai/ha)
85: Plant response rating, Lambsquarters ([7]; 125 g ai/ha, scale of 0 to 100)
10: Plant response rating, Blackgrass ([4]; 31 g ai/ha, scale 0 to 100) | Plant response rating, Lambsquarters ([7]; 31 g ai/ha, scale 0 to 100) | Plant response rating, Morningglory ([8]; 31 g ai/ha, scale 0 to 100) | Plant response rating, Morningglory ([8]; 62 g ai/ha, scale 0 to 100) | Plant response rating, Ryegrass, Italian ([12]; 31 g ai/ha, scale 0 to 100) | Plant response rating, Velvetleaf ([13]; 16 g ai/ha, scale 0 to 100) | Plant response rating, Foxtail, Giant ([17]; 16 g ai/ha, scale of 0 to 100) | Plant response rating, Morningglory ([18]; 16 g ai/ha, scale of 0 to 100)
60: Plant response rating, Barnyardgrass [1] | Plant response rating, Morningglory ([8]; 125 g ai/ha, scale of 0 to 100)
35: Plant response rating, Ryegrass, Italian ([12]; 125 g ai/ha, scale of 0 to 100)
70: Plant response rating, Foxtail, Giant ([6]; 31 g ai/ha, scale 0 to 100) | Plant response rating, Lambsquarters ([7]; 62 g ai/ha, scale 0 to 100) | Plant response rating, Oilseed Rape ([10]; 62 g ai/ha, scale 0 to 100)
